The record followed here is ChEMBL document CHEMBL1201862, “PubChem BioAssay data set” (2004).

The source made the active and inactive calls. Where only a bound is given, the exact number is not on record here.

Assay [1] addresses Type-1 angiotensin II receptor (Homo sapiens, UniProt P30556). Description: AT1 receptor antagonists, dose response, selectivity assay for APJ receptor antagonist project, cell-based, uHTS hits (AID 463214).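 Also: antagonist potency against angiotensin II stimulated AT1 response.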 It counts as functional.
In a further assay the target is Beta-galactosidase (Escherichia coli, UniProt Q8VNN2). The assay is described as follows: PubChem AID 485352. It counts as functional.
Beta-galactosidase, sequence (Q8VNN2 whole entry, the tested form may be a part): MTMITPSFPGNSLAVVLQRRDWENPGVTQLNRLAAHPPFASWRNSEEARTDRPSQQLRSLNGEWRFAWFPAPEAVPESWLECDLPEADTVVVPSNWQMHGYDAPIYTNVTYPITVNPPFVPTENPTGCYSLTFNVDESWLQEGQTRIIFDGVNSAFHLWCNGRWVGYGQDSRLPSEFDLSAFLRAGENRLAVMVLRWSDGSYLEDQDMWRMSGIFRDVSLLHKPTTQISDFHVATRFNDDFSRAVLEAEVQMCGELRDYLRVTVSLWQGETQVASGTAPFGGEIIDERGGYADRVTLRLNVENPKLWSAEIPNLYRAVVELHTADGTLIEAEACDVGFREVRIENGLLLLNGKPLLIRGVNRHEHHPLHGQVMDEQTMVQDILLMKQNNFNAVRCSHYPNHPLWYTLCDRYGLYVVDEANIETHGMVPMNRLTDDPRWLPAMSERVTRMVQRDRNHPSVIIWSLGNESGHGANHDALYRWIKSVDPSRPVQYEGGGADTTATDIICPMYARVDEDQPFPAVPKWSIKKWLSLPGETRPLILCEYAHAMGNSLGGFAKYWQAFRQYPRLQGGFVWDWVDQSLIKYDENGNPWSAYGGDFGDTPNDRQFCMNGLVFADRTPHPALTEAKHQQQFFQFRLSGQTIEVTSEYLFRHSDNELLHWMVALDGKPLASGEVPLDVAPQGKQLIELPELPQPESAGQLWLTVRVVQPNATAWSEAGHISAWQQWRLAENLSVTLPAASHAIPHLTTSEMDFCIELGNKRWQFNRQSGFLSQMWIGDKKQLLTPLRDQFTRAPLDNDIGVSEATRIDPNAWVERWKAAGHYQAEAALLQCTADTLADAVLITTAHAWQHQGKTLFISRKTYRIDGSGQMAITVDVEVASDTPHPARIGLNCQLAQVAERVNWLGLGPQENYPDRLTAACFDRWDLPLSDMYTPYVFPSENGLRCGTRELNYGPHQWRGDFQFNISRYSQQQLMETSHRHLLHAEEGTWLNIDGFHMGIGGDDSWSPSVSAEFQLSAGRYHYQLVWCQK
The nature of assay [2]: HIV-1 Env-mediated cell fusion inhibitors, dose response, CCR5-tropic Env (AID 2279). Type of assay: functional.
The test system of a further assay is Vero. The assay is described as follows: cells. Type of assay: functional. To be noted: Chlorocebus sabaeus.
Assay [3] in a line: Counterscreen for AddAB inhibitors: absorbance-based bacterial cell-based high throughput dose response assay for inhibitors of bacterial viability. [Related pubchem assays (depositor defined):AID435030, AID449728, AID449731, AID488942, AID488955, AID488956]. It counts as functional. (Counterscreens check selectivity or assay interference.)
The nature of assay [4]: A549 cell cytotoxicity, dose response, cytotoxicity control, plate reader, cherry-pick, antagonist series (AID 743412). Type of assay: functional, cell-based.
A short description of assay [5]: HepG2 cell cytotoxicity, dose response, cytotoxicity control, plate reader, cherry-pick, antagonist series (AID 743416). It counts as functional, cell-based.
A short description of assay [6]: cytotoxicity in HEK-293T cells, dose response, cytotoxicity control for TCR NF-kB inhibitor project, luminescence, T-cell screen hits (AID 489026).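 Also: cells exposed to compound about 14 hours before the viability readout.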 It counts as functional, cell-based.
A short description of assay [7]: MC4R antagonists, dose response, counter-screen for LGR2 antagonist project, cell-based, plate reader, cherry pick (AID 743444).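 Also: transfected HEK 293 cells stimulated with alpha-MSH peptide; potency of inhibitors of the alpha-MSH evoked signal.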 Type of assay: functional.
For the next assay, the target named is Exodeoxyribonuclease V (Escherichia coli (strain K12), UniProt P04993+P07648+P08394). Description: E. coli RecBCD inhibitors, dose response, counter-screen for AddAB inhibitor project, absorbance, V66 E. coli, mutant T4 phage (AID 492957). Type of assay: functional, cell-based, Escherichia coli str. K-12 substr. MG1655.
The target of assay [8] is Luciferin 4-monooxygenase (Photuris pensylvanica, UniProt Q27757). Description: firefly luciferase enzyme inhibitors, dose response, counter-screen for HSF-1 reporter inhibitor project, biochemical, Cell Titer Glo, luminescence, cherry-picks (AID 588847).
Luciferin 4-monooxygenase, sequence (Q27757 whole entry): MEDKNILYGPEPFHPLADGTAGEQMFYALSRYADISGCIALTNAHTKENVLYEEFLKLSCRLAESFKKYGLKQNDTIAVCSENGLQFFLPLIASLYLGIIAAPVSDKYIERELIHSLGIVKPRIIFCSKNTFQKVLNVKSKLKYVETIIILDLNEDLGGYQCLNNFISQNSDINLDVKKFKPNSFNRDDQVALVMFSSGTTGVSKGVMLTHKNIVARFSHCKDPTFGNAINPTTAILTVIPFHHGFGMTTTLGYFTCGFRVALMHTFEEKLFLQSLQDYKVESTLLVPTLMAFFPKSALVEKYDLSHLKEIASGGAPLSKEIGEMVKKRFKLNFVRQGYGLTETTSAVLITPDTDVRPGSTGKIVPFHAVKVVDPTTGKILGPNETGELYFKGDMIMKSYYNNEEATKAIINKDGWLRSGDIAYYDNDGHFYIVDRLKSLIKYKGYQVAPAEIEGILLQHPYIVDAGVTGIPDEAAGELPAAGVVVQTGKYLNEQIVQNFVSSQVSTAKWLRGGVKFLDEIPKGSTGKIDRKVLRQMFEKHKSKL
Assay [9] is described as follows: non-specific cell cytotoxicity, dose response, cytotoxicity control for PAX8 inhibitor project, plate reader, dry powder samples (AID 743021). It counts as functional, cell-based.
The nature of assay [10]: HEK293 cell cytotoxicity, dose response, cytotoxicity control, plate reader, cherry-picked samples (AID 743446). Type of assay: functional, cell-based.
For assay [11], the target named is T1, Heat shock factor protein 1 (Mus musculus, UniProt P38532).
T1 sequence (P38532 whole entry): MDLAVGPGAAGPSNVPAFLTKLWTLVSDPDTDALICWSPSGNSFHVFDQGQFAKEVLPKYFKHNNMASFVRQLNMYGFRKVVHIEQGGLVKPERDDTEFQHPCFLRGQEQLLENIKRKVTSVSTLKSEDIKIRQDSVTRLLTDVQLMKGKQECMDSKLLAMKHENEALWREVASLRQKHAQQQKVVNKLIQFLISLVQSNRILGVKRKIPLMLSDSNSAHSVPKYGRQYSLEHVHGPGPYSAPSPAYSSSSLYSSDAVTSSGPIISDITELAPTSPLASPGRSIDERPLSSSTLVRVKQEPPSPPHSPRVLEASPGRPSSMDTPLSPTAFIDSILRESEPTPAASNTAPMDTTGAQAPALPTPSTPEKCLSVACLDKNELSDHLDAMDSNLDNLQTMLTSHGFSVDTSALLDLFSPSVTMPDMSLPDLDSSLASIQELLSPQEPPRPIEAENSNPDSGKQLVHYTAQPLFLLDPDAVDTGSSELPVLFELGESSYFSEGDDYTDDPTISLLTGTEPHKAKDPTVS
The assay is described as follows: inhibition of MG132-induced HSE-luciferase signal, confirmation, cell-based, NIH3T3, luminescence, dose retest (AID 2382).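 Also: NIH3T3 fibroblasts with HSF1-driven luciferase reporter stressed by proteasome inhibitor MG132; luminescence from HSF1-driven luciferase expression after 8 hours of MG132 stress.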 It counts as functional.

The next assay concerns the target Paired box protein Pax-8 (Homo sapiens, UniProt Q06710). Description: inhibitors of PAX8-driven TPO luciferase reporter, dose response, RMG-I cells, cherry-pick (AID 687027).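 Also: luciferase reporter driven by Pax8 target thyroperoxidase promoter measured by SteadyGlo luminescence.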 It counts as functional, cell-based. Background: A reporter such as luciferase makes a cellular process visible.
Assay [12] is described as follows: LGR2 antagonists, dose response, cell-based, HEK293, CRE-luciferase reporter, cherry pick, set 2 (AID 743343).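 Also: transfected cells were stimulated with diluted bursicon conditioned medium after compound addition.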 Type of assay: functional.
Assay [13] can be described thus: cytotoxicity toward NIH3T3 fibroblasts, dose response, counter-screen, cell-based, ATP luminescence, mouse fibroblasts (AID 2010).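 Also: cells exposed to compound for about 90 hours before reading.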 Type of assay: functional.
Assay [14] is described as follows: Luminescence-based dose response cell-based high throughput screening assay for cytotoxic compounds using the IEC-6 intestinal epithelial cell line. [Related pubchem assays: 1858 (Summary AID.), 1825 (Counterscreen.), 1907 (Confirmation screen.)]. It counts as functional.
The nature of assay [15]: inhibitors of intracellular T. cruzi replication, confirmation, NIH3T3 host cells, beta-gal luminescence (AID 2044).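 Also: intracellular parasites grown in NIH/3T3 mouse fibroblasts as host cells; luminescent beta-galactosidase reporter signal from transgenic T. cruzi replicating inside host cells; inhibitors lower the luminescence signal.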 It counts as functional, cell-based.
Assay [16] concerns the target T2, Calpain-2 catalytic subunit (Sus scrofa, UniProt P43367).
T2 sequence (P43367 whole entry): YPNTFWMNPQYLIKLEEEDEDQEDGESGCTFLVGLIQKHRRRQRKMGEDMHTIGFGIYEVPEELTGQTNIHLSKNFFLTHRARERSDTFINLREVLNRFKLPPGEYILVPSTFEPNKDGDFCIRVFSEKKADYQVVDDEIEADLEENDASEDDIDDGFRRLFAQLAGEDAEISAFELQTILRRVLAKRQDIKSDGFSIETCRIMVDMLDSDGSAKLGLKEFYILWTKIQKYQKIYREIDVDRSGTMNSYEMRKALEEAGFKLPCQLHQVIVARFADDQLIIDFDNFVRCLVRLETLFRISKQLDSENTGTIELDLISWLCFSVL
Description: pig calpain II inhibitor potency, dose response, biochemical, fluorogenic peptide substrate (AID 1420). It counts as functional.

For assay [17], the target named is T3, Apoptotic protease-activating factor 1 (Homo sapiens, UniProt O14727).
T3 sequence (O14727 whole entry): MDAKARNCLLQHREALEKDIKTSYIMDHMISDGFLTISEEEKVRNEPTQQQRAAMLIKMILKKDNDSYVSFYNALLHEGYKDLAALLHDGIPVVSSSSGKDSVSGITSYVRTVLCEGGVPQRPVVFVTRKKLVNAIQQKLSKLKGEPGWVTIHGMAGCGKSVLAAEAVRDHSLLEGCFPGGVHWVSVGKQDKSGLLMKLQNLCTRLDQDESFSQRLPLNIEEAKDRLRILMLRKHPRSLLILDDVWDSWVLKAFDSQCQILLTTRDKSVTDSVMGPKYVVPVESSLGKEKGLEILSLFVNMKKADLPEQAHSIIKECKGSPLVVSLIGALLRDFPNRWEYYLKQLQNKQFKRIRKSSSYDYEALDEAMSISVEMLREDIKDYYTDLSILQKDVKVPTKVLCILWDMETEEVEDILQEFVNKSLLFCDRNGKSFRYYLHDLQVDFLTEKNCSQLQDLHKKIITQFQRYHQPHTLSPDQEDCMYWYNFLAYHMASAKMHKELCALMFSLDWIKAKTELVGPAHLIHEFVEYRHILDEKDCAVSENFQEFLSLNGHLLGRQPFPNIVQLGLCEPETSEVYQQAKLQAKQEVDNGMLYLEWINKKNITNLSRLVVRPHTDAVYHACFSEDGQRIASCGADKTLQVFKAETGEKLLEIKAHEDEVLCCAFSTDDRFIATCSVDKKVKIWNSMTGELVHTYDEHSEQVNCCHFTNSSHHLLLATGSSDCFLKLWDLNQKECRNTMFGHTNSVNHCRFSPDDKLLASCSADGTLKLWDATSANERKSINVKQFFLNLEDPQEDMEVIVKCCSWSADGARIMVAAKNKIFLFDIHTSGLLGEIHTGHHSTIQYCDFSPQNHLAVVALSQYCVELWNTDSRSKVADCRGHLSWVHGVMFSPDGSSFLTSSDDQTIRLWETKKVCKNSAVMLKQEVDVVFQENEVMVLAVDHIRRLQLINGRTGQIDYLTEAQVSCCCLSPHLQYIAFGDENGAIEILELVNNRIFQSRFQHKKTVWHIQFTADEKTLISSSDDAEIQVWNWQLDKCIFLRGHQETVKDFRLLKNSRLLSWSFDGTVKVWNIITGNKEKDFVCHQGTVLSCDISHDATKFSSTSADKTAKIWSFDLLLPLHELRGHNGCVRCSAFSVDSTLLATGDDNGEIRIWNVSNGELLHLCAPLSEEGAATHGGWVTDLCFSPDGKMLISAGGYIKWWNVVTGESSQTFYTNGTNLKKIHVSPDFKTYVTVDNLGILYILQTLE
Type of assay: functional.

Assay [18] deals with Microphthalmia-associated transcription factor (Homo sapiens, UniProt O75030). The assay is described as follows: TRPM1 promoter luciferase signal decrease, dose response, MITF inhibitor project, cell-based, SK-MEL-5, cherry-picked, set 3 (AID 493073).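 Also: SK-MEL-5 melanoma cells with luciferase driven by the MITF target TRPM1 promoter.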 Type of assay: functional.
Microphthalmia-associated transcription factor, sequence (O75030 whole entry): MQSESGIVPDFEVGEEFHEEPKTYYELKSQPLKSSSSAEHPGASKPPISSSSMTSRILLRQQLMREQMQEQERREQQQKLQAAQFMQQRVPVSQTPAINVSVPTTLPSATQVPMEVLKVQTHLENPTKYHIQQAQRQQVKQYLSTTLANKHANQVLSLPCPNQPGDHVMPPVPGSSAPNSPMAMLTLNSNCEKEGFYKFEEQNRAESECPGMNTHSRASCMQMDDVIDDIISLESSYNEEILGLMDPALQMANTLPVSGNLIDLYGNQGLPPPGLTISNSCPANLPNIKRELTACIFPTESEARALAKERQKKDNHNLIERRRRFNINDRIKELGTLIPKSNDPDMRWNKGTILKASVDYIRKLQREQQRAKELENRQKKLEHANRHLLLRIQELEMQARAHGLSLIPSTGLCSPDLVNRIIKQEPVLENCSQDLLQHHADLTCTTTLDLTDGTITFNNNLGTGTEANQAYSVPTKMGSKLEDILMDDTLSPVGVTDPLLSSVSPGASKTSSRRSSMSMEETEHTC
Assay [19] concerns the target T4, Histone-lysine N-methyltransferase NSD2 (Homo sapiens, UniProt O96028).
T4 sequence (O96028 whole entry): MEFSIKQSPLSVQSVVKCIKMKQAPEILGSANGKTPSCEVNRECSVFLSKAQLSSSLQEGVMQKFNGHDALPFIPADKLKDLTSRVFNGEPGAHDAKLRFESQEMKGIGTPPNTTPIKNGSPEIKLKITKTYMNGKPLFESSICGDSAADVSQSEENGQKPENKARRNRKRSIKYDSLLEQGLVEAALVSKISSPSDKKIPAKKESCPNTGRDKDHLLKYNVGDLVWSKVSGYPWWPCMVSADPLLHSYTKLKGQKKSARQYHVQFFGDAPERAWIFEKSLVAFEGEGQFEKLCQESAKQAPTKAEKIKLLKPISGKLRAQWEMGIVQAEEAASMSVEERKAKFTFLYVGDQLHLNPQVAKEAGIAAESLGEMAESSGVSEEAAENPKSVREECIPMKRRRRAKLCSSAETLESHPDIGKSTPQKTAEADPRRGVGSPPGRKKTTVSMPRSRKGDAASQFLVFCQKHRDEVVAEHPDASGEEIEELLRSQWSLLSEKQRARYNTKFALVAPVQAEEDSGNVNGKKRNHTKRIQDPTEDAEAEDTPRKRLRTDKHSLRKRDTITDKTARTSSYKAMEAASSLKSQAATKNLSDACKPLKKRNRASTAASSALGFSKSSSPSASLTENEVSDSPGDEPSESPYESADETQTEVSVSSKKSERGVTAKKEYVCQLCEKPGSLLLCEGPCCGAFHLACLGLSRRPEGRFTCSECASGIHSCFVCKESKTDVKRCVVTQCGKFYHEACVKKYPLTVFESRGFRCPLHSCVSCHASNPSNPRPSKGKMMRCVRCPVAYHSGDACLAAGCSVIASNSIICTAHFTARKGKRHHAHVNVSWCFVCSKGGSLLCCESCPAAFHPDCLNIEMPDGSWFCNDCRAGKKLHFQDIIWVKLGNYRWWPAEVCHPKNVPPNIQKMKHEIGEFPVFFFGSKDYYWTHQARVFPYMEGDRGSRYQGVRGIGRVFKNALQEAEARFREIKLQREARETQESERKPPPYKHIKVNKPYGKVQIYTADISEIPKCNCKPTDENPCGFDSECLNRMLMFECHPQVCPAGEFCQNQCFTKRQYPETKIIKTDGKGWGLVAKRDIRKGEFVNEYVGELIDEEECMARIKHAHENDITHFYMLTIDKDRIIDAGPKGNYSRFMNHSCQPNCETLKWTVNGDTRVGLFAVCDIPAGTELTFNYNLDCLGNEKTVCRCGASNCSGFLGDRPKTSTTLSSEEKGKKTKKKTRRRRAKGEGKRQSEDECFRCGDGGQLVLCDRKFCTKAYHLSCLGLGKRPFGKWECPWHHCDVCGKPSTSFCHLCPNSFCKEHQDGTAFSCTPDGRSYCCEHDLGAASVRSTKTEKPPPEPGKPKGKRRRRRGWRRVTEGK
Type of assay: biochemical.

For a further assay, the system named is A-375. The assay is described as follows: A375 melanoma cell viability reduction, dose response, counter-screen for MITF modulator project, cherry-pick samples, set 2 (AID 540335). Type of assay: functional, cell-based. As to conditions: Homo sapiens.
The next assay deals with INS1. Description: beta cell apoptosis inhibitors, cytokine rescue, dose response, luminescence, retest (AID 449756).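 Also: cell death triggered by IL-1 beta plus TNF-alpha plus IFN-gamma mixture; protective hits raise ATP signal compared with cytokine alone wells.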 As to conditions: Rattus norvegicus. It counts as functional, cell-based.

In general, IC50 refers to the point on the concentration scale where inhibition reaches its midpoint. Broadly, the EC50 is the concentration giving half of the maximal effect. As usually defined, the CC50 is the concentration giving 50% cytotoxicity. Usually AC50 stands for the concentration giving half of the maximal activity seen.

Type-1 angiotensin II receptor, sequence (P30556 whole entry): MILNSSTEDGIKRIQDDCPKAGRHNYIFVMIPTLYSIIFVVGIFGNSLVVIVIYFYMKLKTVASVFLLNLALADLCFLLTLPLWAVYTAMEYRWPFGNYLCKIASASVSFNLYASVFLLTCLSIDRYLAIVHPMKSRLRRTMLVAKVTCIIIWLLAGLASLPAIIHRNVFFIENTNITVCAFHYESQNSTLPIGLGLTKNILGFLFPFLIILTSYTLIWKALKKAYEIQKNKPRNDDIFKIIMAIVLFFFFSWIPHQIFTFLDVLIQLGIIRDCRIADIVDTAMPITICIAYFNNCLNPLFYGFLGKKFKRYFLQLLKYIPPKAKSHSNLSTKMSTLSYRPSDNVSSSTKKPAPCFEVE
Paired box protein Pax-8, sequence (Q06710 whole entry): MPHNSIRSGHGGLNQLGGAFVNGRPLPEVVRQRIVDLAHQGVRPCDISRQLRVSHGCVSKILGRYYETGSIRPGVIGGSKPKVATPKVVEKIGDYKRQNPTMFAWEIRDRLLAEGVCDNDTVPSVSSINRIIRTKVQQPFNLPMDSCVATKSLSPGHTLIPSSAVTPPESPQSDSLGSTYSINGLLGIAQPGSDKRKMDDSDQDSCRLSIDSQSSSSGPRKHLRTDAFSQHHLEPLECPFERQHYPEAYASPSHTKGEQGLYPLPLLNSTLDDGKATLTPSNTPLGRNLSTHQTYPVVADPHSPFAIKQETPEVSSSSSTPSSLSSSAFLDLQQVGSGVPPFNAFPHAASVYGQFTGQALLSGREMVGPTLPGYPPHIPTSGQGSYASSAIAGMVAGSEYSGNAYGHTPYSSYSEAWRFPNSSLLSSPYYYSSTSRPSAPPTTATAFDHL

In the case of `O=C(O)c1ccccc1N=Nc1c(O)[nH]c2ccc([N+](=O)[O-])cc12`, the IC50 in assay [1] is > 40 µM (not active); in assay [2], 10.1 µM (active). The EC50 on Beta-galactosidase was > 40 µM (inactive).
As to `C(=N\Nc1nc2ccccc2s1)/c1ccccn1`, the CC50 in the assay with Vero is 2.61 µM (active). For the same compound, the IC50 in [3] was > 119 µM (inactive); in assay [6], > 80 µM (inactive); at Exodeoxyribonuclease V, > 119 µM (inactive). For the same compound, the AC50 is 2.02 µM (active) in [4]; 2.06 µM (active) in assay [5]; 0.229 µM (active) in assay [7]; 0.836 µM (active) in assay [8]; 9.34 µM (active) in [9]; 3.72 µM (active) in assay [10]. The AC50 on Paired box protein Pax-8 was 3.32 µM (active); in [12], 0.148 µM (active). Also, the EC50 in assay [11] is < 0.16 µM (active).
As to `CCN(CC)CCCNC1=C(Cl)C(=O)c2ccccc2C1=O`, the EC50 in assay [13] was 2.26 µM (active); in assay [15], 0.987 µM (active). Also, the figures for the IC50 in assay [14], in assay [16] and in assay [17] were 1.8 µM (active), 9.5 µM (not active) and 11.7 µM (active), respectively. The AC50 in [18] was 1.78 µM (active); in assay [19] it was 4.69 µM (active); with A-375, 14.8 µM (active); with INS1, 2.46 µM (active).
